Reference: BindingDB's records for doi:10.1016/j.bmcl.2009.09.017 (Pfizer, 2009)

Experiment: Antagonist activity at P2Y12 receptor in human platelet rich plasma assessed as inhibition of ADP-induced platelet aggregation by light transmission aggregometry

Q: Which IC50 does the source give for `CCCCCOC(=O)N1CCN(C(=O)[C@H](CCC(=O)O)NC(=O)c2nc(-c3ccccc3)cc(N3CCC(C(=O)N(CC)CC)CC3)n2)CC1` [(S)-4-(4-(4-(diethylcarbamoyl)piperidin-1-yl)-6-phenylpyrimidine-2-carboxamido)-5-oxo-5-(4-(pentyloxycarbonyl)piperazin-1-yl)pentanoic acid] here?
A: 1.3 µM

Q: For `CCCCCOC(=O)N1CCN(C(=O)[C@H](CCC(=O)O)NC(=O)c2nc(-c3ccccc3)cc(N3CCN(C(=O)N(C)C)CC3)n2)CC1` [(S)-4-(4-(4-(dimethylcarbamoyl)piperazin-1-yl)-6-phenylpyrimidine-2-carboxamido)-5-oxo-5-(4-(pentyloxycarbonyl)piperazin-1-yl)pentanoic acid], which IC50 is on record?
A: > 10 µM

Q: For `CCCCCOC(=O)N1CCN(C(=O)[C@H](CCC(=O)O)NC(=O)c2nc(-c3ccccc3)cc(N3CCC(COC)CC3)n2)CC1` [(S)-4-(4-(4-(methoxymethyl)piperidin-1-yl)-6-phenylpyrimidine-2-carboxamido)-5-oxo-5-(4-(pentyloxycarbonyl)piperazin-1-yl)pentanoic acid], which IC50 is on record?
A: 6.8 µM

Q: For `CCCCCOC(=O)N1CCN(C(=O)[C@H](CCC(=O)O)NC(=O)c2nc(-c3ccccc3)cc(N3CCN(C(C)=O)CC3)n2)CC1` [(S)-4-(4-(4-acetylpiperazin-1-yl)-6-phenylpyrimidine-2-carboxamido)-5-oxo-5-(4-(pentyloxycarbonyl)piperazin-1-yl)pentanoic acid], which IC50 is on record?
A: 6.5 µM

Q: With `CCCCCOC(=O)N1CCN(C(=O)[C@H](CCC(=O)O)NC(=O)c2nc(-c3ccccc3)cc(N3CCC(N)CC3)n2)CC1` [(S)-4-(4-(4-aminopiperidin-1-yl)-6-phenylpyrimidine-2-carboxamido)-5-oxo-5-(4-(pentyloxycarbonyl)piperazin-1-yl)pentanoic acid] as the compound, how does the IC50 read?
A: 2.7 µM

Q: With `CCCCCOC(=O)N1CCN(C(=O)[C@H](CCC(=O)O)NC(=O)c2nc(-c3ccccc3)cc(N3CCN(C(N)=O)CC3)n2)CC1` [(S)-4-(4-(4-carbamoylpiperazin-1-yl)-6-phenylpyrimidine-2-carboxamido)-5-oxo-5-(4-(pentyloxycarbonyl)piperazin-1-yl)pentanoic acid] as the compound, how does the IC50 read?
A: 3.6 µM

Q: With `CCCCCOC(=O)N1CCN(C(=O)[C@H](CCC(=O)O)NC(=O)c2nc(-c3ccccc3)cc(N3CCC(C(N)=O)CC3)n2)CC1` [(S)-4-(4-(4-carbamoylpiperidin-1-yl)-6-phenylpyrimidine-2-carboxamido)-5-oxo-5-(4-(pentyloxycarbonyl)piperazin-1-yl)pentanoic acid] as the compound, how does the IC50 read?
A: 2.3 µM

Q: For `CCCCCOC(=O)N1CCN(C(=O)[C@H](CCC(=O)O)NC(=O)c2nc(-c3ccccc3)cc(N3CCC(OC)CC3)n2)CC1` [(S)-4-(4-(4-methoxypiperidin-1-yl)-6-phenylpyrimidine-2-carboxamido)-5-oxo-5-(4-(pentyloxycarbonyl)piperazin-1-yl)pentanoic acid], which IC50 is on record?
A: > 10 µM

Q: With `CCCCCOC(=O)N1CCN(C(=O)[C@H](CCC(=O)O)NC(=O)c2nc(-c3ccccc3)cc(N3CCN(C)CC3)n2)CC1` [(S)-4-(4-(4-methylpiperazin-1-yl)-6-phenylpyrimidine-2-carboxamido)-5-oxo-5-(4-(pentyloxycarbonyl)piperazin-1-yl)pentanoic acid] as the compound, how does the IC50 read?
A: 8.1 µM

Q: Which IC50 does the source give for `CCCCCOC(=O)N1CCN(C(=O)[C@H](CCC(=O)O)NC(=O)c2nc(-c3ccccc3)cc(N3CCC(N4CCOCC4)CC3)n2)CC1` [(S)-4-(4-(4-morpholinopiperidin-1-yl)-6-phenylpyrimidine-2-carboxamido)-5-oxo-5-(4-(pentyloxycarbonyl)piperazin-1-yl)pentanoic acid] here?
A: 3 µM

Q: Which IC50 does the source give for `CCCCCOC(=O)N1CCN(C(=O)[C@H](CCC(=O)O)NC(=O)c2nc(OCC3CCN(C)CC3)cc(-c3ccccc3)n2)CC1` [(S)-4-(4-((1-methylpiperidin-4-yl)methoxy)-6-phenylpyrimidine-2-carboxamido)-5-oxo-5-(4-(pentyloxycarbonyl)piperazin-1-yl)pentanoic acid] here?
A: 3.8 µM

Q: For `CCCCCOC(=O)N1CCN(C(=O)[C@H](CCC(=O)O)NC(=O)c2nc(-c3ccccc3)cc(N3CCOCC3)n2)CC1` [(S)-4-(4-morpholino-6-phenylpyrimidine-2-carboxamido)-5-oxo-5-(4-(pentyloxycarbonyl)piperazin-1-yl)pentanoic acid], which IC50 is on record?
A: > 10 µM

Q: For `CCCCCOC(=O)N1CCN(C(=O)[C@H](CCC(=O)O)NC(=O)c2cc(NC3CCN(C(C)C)CC3)nc(-c3ccccc3)n2)CC1` [(S)-4-(6-(1-isopropylpiperidin-4-ylamino)-2-phenylpyrimidine-4-carboxamido)-5-oxo-5-(4-(pentyloxycarbonyl)piperazin-1-yl)pentanoic acid], which IC50 is on record?
A: 3.7 µM

Q: Which IC50 does the source give for `CCCCCOC(=O)N1CCN(C(=O)[C@H](CCC(=O)O)NC(=O)c2cc(OCCN(CC)CC)nc(-c3ccccc3)n2)CC1` [(S)-4-(6-(2-(diethylamino)ethoxy)-2-phenylpyrimidine-4-carboxamido)-5-oxo-5-(4-(pentyloxycarbonyl)piperazin-1-yl)pentanoic acid] here?
A: 15 µM

Q: For `CCCCCOC(=O)N1CCN(C(=O)[C@H](CCC(=O)O)NC(=O)c2cc(SCCO)nc(-c3ccccc3)n2)CC1` [(S)-4-(6-(2-hydroxyethylthio)-2-phenylpyrimidine-4-carboxamido)-5-oxo-5-(4-(pentyloxycarbonyl)piperazin-1-yl)pentanoic acid], which IC50 is on record?
A: > 10 µM

Q: With `CCCCCOC(=O)N1CCN(C(=O)[C@H](CCC(=O)O)NC(=O)c2cc(OCCOC)nc(-c3ccccc3)n2)CC1` [(S)-4-(6-(2-methoxyethoxy)-2-phenylpyrimidine-4-carboxamido)-5-oxo-5-(4-(pentyloxycarbonyl)piperazin-1-yl)pentanoic acid] as the compound, how does the IC50 read?
A: 7.9 µM

Q: With `CCCCCOC(=O)N1CCN(C(=O)[C@H](CCC(=O)O)NC(=O)c2cc(NCCOC)nc(-c3ccccc3)n2)CC1` [(S)-4-(6-(2-methoxyethylamino)-2-phenylpyrimidine-4-carboxamido)-5-oxo-5-(4-(pentyloxycarbonyl)piperazin-1-yl)pentanoic acid] as the compound, how does the IC50 read?
A: 2.6 µM

Q: Which IC50 does the source give for `CCCCCOC(=O)N1CCN(C(=O)[C@H](CCC(=O)O)NC(=O)c2cc(NCCCN(C)C)nc(-c3ccccc3)n2)CC1` [(S)-4-(6-(3-(dimethylamino)propylamino)-2-phenylpyrimidine-4-carboxamido)-5-oxo-5-(4-(pentyloxycarbonyl)piperazin-1-yl)pentanoic acid] here?
A: 2.6 µM

Q: For `CCCCCOC(=O)N1CCN(C(=O)[C@H](CCC(=O)O)NC(=O)c2cc(N3CC(OCC)C3)nc(-c3ccccc3)n2)CC1` [(S)-4-(6-(3-ethoxyazetidin-1-yl)-2-phenylpyrimidine-4-carboxamido)-5-oxo-5-(4-(pentyloxycarbonyl)piperazin-1-yl)pentanoic acid], which IC50 is on record?
A: 4.1 µM

Q: For `CCCCCOC(=O)N1CCN(C(=O)[C@H](CCC(=O)O)NC(=O)c2cc(N3CC(O)C3)nc(-c3ccccc3)n2)CC1` [(S)-4-(6-(3-hydroxyazetidin-1-yl)-2-phenylpyrimidine-4-carboxamido)-5-oxo-5-(4-(pentyloxycarbonyl)piperazin-1-yl)pentanoic acid], which IC50 is on record?
A: 3.5 µM

Q: With `CCCCCOC(=O)N1CCN(C(=O)[C@H](CCC(=O)O)NC(=O)c2cc(OCCCN3CCOCC3)nc(-c3ccccc3)n2)CC1` [(S)-4-(6-(3-morpholinopropoxy)-2-phenylpyrimidine-4-carboxamido)-5-oxo-5-(4-(pentyloxycarbonyl)piperazin-1-yl)pentanoic acid] as the compound, how does the IC50 read?
A: 8.7 µM
